# Test results as given in US8263603B2, “N3-substituted-N1-sulfonyl-5-fluoropyrimidinone derivatives” (Dow AgroSciences, LLC, priority 2010, dated 2012).
# What was measured:
# [1] = test system: Mycosphaerella graminicola; anamorph: Septoria tritici; Bayer code SEPTTR; experiment: Fungicidal activity against leaf blotch of wheat, one-day protectant (1 DP); format: in vivo; conditions: Zymoseptoria tritici, 24 h, wheat plants (variety Yuma), rating of % disease control
# Method: (§1) Evaluation of Fungicidal Activity: Leaf Blotch of Wheat (Mycosphaerella graminicola; anamorph: Septoria tritici; Bayer code […]) Wheat plants (variety Yuma) were grown from seed in a greenhouse in 50% mineral soil/50% soil-less Metro mix until the first leaf was fully emerged, with 7-10 seedlings per pot. These plants were inoculated with an aqueous spore suspension of Septoria tritici either prior to or after fungicide treatments. After inoculation the plants were kept in 100% relative humidity (one day in a dark dew chamber followed by two days in a lighted dew chamber) to permit spores to germinate and infect the leaf. The plants were then transferred to a greenhouse for disease to develop. The following table presents the activity of typical compounds of the present disclosure when evaluated in these experiments. The effectiveness of the test compounds in controlling disease was determined by assessing the severity of disease on treated plants, and then converting the severity to percent control based on the level of disease on untreated, inoculated plants. • In each case of Table II the rating scale is as follows: […]
# [2] = test system: Mycosphaerella graminicola; anamorph: Septoria tritici; Bayer code SEPTTR; experiment: Fungicidal activity against leaf blotch of wheat, three-day curative (3 DC); format: in vivo; conditions: Zymoseptoria tritici, 72 h, wheat plants (variety Yuma), rating of % disease control
# Method: as §1
SMILES,melting point [°C],pest or weed control at 100 ppm [1] [%],pest or weed control at 100 ppm [2] [%]
"Cn1c(=N)c(F)cn(S(=O)(=O)c2ccccc2)c1=O [Compound 1, 1-Benzenesulfonyl-5-fluoro-4-imino-3-methyl-3,4-dihydro-1H-pyrimidin-2-one]",144,76 to 100,76 to 100
Cn1c(=N)c(F)cn(S(=O)(=O)c2cccs2)c1=O [Compound 2],136 to 139,76 to 100,76 to 100
COc1ccc(S(=O)(=O)n2cc(F)c(=N)n(C)c2=O)cc1 [Compound 3],158 to 162,76 to 100,76 to 100
"COc1ccc(S(=O)(=O)n2cc(F)c(=N)n(Cc3ccccc3)c2=O)cc1 [Compound 5, 3-benzyl-5-fluoro-4-imino-1-(4-methoxyphenylsulfonyl)-3,4-dihydropyrimidin-2(1H)-one]",–,0 to 25,0 to 25

# Continued, in another order:
melting point [°C],SMILES,pest or weed control at 100 ppm [1] [%],pest or weed control at 100 ppm [2] [%]
182 to 185,CCn1c(=N)c(F)cn(S(=O)(=O)c2c(Cl)cccc2Cl)c1=O [Compound 9],0 to 25,76 to 100
107 to 111,CCn1c(=N)c(F)cn(S(=O)(=O)c2ccc(OC)cc2)c1=O [Compound 8],0 to 25,51 to 75
147 to 150,Cn1c(=N)c(F)cn(S(=O)(=O)c2ccc(Cl)cc2)c1=O [Compound 4],76 to 100,76 to 100
165 to 168,CCn1c(=N)c(F)cn(S(=O)(=O)c2ccc(Cl)cc2)c1=O [Compound 7],51 to 75,76 to 100
163 to 166,"CCn1c(=N)c(F)cn(S(=O)(=O)c2ccccc2)c1=O [Compound 6, 1-benzenesulfonyl-5-fluoro-4-imino-3-ethyl-3,4-dihydro-1H-pyrimidin-2-one]",0 to 25,0 to 25
